Measured values published in PMC9866191, “Novel 9-Benzylaminoacridine Derivatives as Dual Inhibitors of Phosphodiesterase 5 and Topoisomerase II for the Treatment of Colon Cancer” (Molecules, 2023).

Tests used:
[1] = tested on: CCD-966SK; assay: MTT cell proliferation assay, CCD-966SK; conditions: CCD966SK skin fibroblast, 72 h MTT
[2] = tested on: HS 578T; assay: NCI-60 one-dose screen; format: cell-based; conditions: Homo sapiens, Breast Cancer panel, single dose 10^−5 M, read-out: Growth inhibition %
[3] = tested on: NCI-H460; assay: NCI-60 one-dose screen; format: cell-based; conditions: Homo sapiens; NCI-H460, Non-small cell lung panel; single dose 10^−5 M; read-out: Growth inhibition %
[4] = tested on: KM12; assay: NCI-60 one-dose screen; format: cell-based; conditions: Homo sapiens; KM12, Colon Cancer panel; single dose 10^−5 M; read-out: Growth inhibition %
[5] = tested on: MDA-MB-468; assay: NCI-60 one-dose screen; format: cell-based; conditions: Homo sapiens; MDA-MB-468, Breast Cancer panel; single dose 10^−5 M; read-out: Growth inhibition %
[6] = tested on: PC-3; assay: NCI-60 one-dose screen; format: cell-based; conditions: Homo sapiens; PC-3, Prostate Cancer panel; single dose 10^−5 M; read-out: Growth inhibition %
[7] = tested on: SF-539; assay: NCI-60 one-dose screen; format: cell-based; conditions: Homo sapiens; SF-539, CNS Cancer panel; single dose 10^−5 M; read-out: Growth inhibition %
[8] = tested on: MCF7; assay: NCI-60 one-dose screen; format: cell-based; conditions: Homo sapiens; MCF7, Breast Cancer panel; single dose 10^−5 M; read-out: Growth inhibition %
[9] = tested on: A498; assay: NCI-60 one-dose screen; format: cell-based; conditions: Homo sapiens; A498, Renal Cancer panel; single dose 10^−5 M; read-out: Growth inhibition %
[10] = tested on: HCT-116; assay: NCI-60 one-dose screen; format: cell-based; conditions: Homo sapiens, read-out: Growth inhibition %
[11] = tested on: NCI-H522; assay: NCI-60 one-dose screen; format: cell-based; conditions: Homo sapiens; NCI-H522, Non-small cell lung panel; single dose 10^−5 M; read-out: Growth inhibition %
[12] = tested on: M14; assay: NCI-60 one-dose screen; format: cell-based; conditions: Homo sapiens; M14, Melanoma panel; single dose 10^−5 M; read-out: Growth inhibition %
[13] = tested on: HCT-15; assay: NCI-60 one-dose screen; format: cell-based; conditions: Homo sapiens; HCT-15, Colon Cancer panel; single dose 10^−5 M; read-out: Growth inhibition %
[14] = tested on: MALME-3M; assay: NCI-60 one-dose screen; format: cell-based; conditions: Homo sapiens, Melanoma panel, single dose 10^−5 M, read-out: Growth inhibition %
[15] = tested on: RPMI-8226; assay: NCI-60 one-dose screen; format: cell-based; conditions: Homo sapiens; RPMI-8226, Leukemia panel; single dose 10^−5 M; read-out: Growth inhibition %
[16] = tested on: SK-MEL-28; assay: NCI-60 one-dose screen; format: cell-based; conditions: Homo sapiens; SK-MEL-28, Melanoma panel; single dose 10^−5 M; read-out: Growth inhibition %
[17] = tested on: NCI-H322M; assay: NCI-60 one-dose screen; format: cell-based; conditions: Homo sapiens, Non-small cell lung panel, single dose 10^−5 M, read-out: Growth inhibition %
[18] = tested on: MOLT-4; assay: NCI-60 one-dose screen; format: cell-based; conditions: Homo sapiens; MOLT-4, Leukemia panel; single dose 10^−5 M; read-out: Growth inhibition %
[19] = tested on: SW-620; assay: NCI-60 one-dose screen; format: cell-based; conditions: Homo sapiens; SW-620, Colon Cancer panel; single dose 10^−5 M; read-out: Growth inhibition %
[20] = tested on: HT29; assay: NCI-60 one-dose screen; format: cell-based; conditions: Homo sapiens, HT-29; HT29, Colon Cancer panel; single dose 10^−5 M; read-out: Growth inhibition %
[21] = tested on: 786-0; assay: NCI-60 one-dose screen; format: cell-based; conditions: Homo sapiens; 786-0, Renal Cancer panel; single dose 10^−5 M; read-out: Growth inhibition %
[22] = tested on: EKVX; assay: NCI-60 one-dose screen; format: cell-based; conditions: Homo sapiens, Non-small cell lung panel, single dose 10^−5 M, read-out: Growth inhibition %
[23] = tested on: BT-549; assay: NCI-60 one-dose screen; format: cell-based; conditions: Homo sapiens; BT-549, Breast Cancer panel; single dose 10^−5 M; read-out: Growth inhibition %
[24] = tested on: UACC-257; assay: NCI-60 one-dose screen; format: cell-based; conditions: Homo sapiens; UACC-257, Melanoma panel; single dose 10^−5 M; read-out: Growth inhibition %
[25] = tested on: SR; assay: NCI-60 one-dose screen; format: cell-based; conditions: Homo sapiens, Leukemia panel, single dose 10^−5 M, read-out: Growth inhibition %
[26] = tested on: TK-10; assay: NCI-60 one-dose screen; format: cell-based; conditions: Homo sapiens; TK-10, Renal Cancer panel; single dose 10^−5 M; read-out: Growth inhibition %
[27] = biological target: T1, PDE5A (Homo sapiens, UniProt O76074); assay: Phosphodiesterase 5 HTRF cGMP assay; format: biochemical; conditions: for IC50: means ± S.D. (n = 4), read-out: PDE5 IC50; for inhibition at 10 µM: read-out: PDE5 % Inhibition at 10 μM
T1 construct: purchased BPS Bioscience, San Diego, CA, USA
Protocol: All the synthesized acridine derivatives were tested for their in vitro ability to inhibit PDE5A at a screening dose of 10 µM.
The enzyme activities of phosphodiesterase 5 (PDE5) were measured using an HTRF cGMP assay kit (Cisbio, Codolet, France). […] Afterward, the HTRF reagent (cGMP-d2 and anti-cGMP-cryptate) was added for 1 h at 25 °C, and PDE activity was assayed on an HTRF reader (Tecan Infinite F200 Pro).

[28] = tested on: LOX IMVI; assay: NCI-60 one-dose screen; format: cell-based; conditions: Homo sapiens, Melanoma panel, single dose 10^−5 M, read-out: Growth inhibition %
[29] = tested on: HL-60(TB); assay: NCI-60 one-dose screen; format: cell-based; conditions: Homo sapiens, Leukemia panel, single dose 10^−5 M, read-out: Growth inhibition %
[30] = tested on: HCT-116; assay: MTT cell proliferation assay, HCT-116; conditions: for % Inhibition at 10 µM: 72 h MTT, means ± SD; for IC50: read-out: IC50 μM, 72 h MTT, means ± SD, three experiments

SMILES: COc1cccc(CNc2c3ccccc3nc3ccccc23)c1OC [Compound 16, Acridin-9-yl-(2,3-dimethoxybenzyl)-amine]
- % Inhibition at 10 µM [1]: 29.78 ± 2.20%
- inhibition at 10 µM [2]: 35.7%
- inhibition at 10 µM [3]: 88.4%
- inhibition at 10 µM [4]: 47.6%
- inhibition at 10 µM [5]: 98.9%
- inhibition at 10 µM [6]: 62.4%
- inhibition at 10 µM [7]: 81.1%
- inhibition at 10 µM [8]: 89.9%
- inhibition at 10 µM [9]: 104%
- inhibition at 10 µM [10]: 88.2%
- inhibition at 10 µM [11]: 59.9%
- inhibition at 10 µM [12]: 65.5%
- inhibition at 10 µM [13]: 80.2%
- inhibition at 10 µM [14]: 49.4%
- inhibition at 10 µM [15]: 83%
- inhibition at 10 µM [16]: 33.9%
- inhibition at 10 µM [17]: 58.4%
- inhibition at 10 µM [18]: 82.2%
- inhibition at 10 µM [19]: 74.6%
- inhibition at 10 µM [20]: 85.6%
- inhibition at 10 µM [21]: 61.2%
- inhibition at 10 µM [22]: 63.7%
- inhibition at 10 µM [23]: 40.3%
- inhibition at 10 µM [24]: 45.2%
- inhibition at 10 µM [25]: 82.5%
- inhibition at 10 µM [26]: 40.5%
- IC50 [27]: > 10 µM
- inhibition at 10 µM [27]: 36.7 ± 8.14%
- inhibition at 10 µM [28]: 87%

SMILES: Fc1ccc(CNc2c3ccccc3nc3ccccc23)cc1F [Compound 22, Acridin-9-yl-(3,4-difluorobenzyl)-amine]
- % Inhibition at 10 µM [1]: 37.49 ± 7.38%
- inhibition at 10 µM [2]: 35.2%
- inhibition at 10 µM [3]: 85.4%
- inhibition at 10 µM [4]: 46.7%
- inhibition at 10 µM [5]: 111%
- inhibition at 10 µM [6]: 64.3%
- inhibition at 10 µM [7]: 77.9%
- inhibition at 10 µM [8]: 87.1%
- inhibition at 10 µM [9]: 90.2%
- inhibition at 10 µM [10]: 91.8%
- inhibition at 10 µM [11]: 63%
- inhibition at 10 µM [12]: 56.9%
- inhibition at 10 µM [13]: 82%
- inhibition at 10 µM [14]: 49.3%
- inhibition at 10 µM [15]: 73.1%
- inhibition at 10 µM [16]: 17.6%
- inhibition at 10 µM [17]: 61%
- inhibition at 10 µM [19]: 76.3%
- inhibition at 10 µM [20]: 86.6%
- inhibition at 10 µM [21]: 68.5%
- inhibition at 10 µM [22]: 64.5%
- inhibition at 10 µM [23]: 31.8%
- inhibition at 10 µM [29]: 65.5%
- inhibition at 10 µM [24]: 34.9%
- inhibition at 10 µM [25]: 83%
- inhibition at 10 µM [26]: 48.9%
- % Inhibition at 10 µM [30]: 56.92 ± 0.61%
- IC50 [30]: 6.99 ± 0.17 µM
- IC50 [27]: > 10 µM
- inhibition at 10 µM [27]: 36.2 ± 9.78%
- inhibition at 10 µM [28]: 87.5%

SMILES: Cc1ccc2nc3ccccc3c(NCc3ccccc3)c2c1 [Compound 30, Benzyl-(2-methylacridin-9-yl)-amine]
- % Inhibition at 10 µM [1]: 47.93 ± 1.06%
- inhibition at 10 µM [2]: 30.2%
- inhibition at 10 µM [3]: 82.9%
- inhibition at 10 µM [4]: 43.7%
- inhibition at 10 µM [5]: 111%
- inhibition at 10 µM [6]: 70.3%
- inhibition at 10 µM [7]: 76.8%
- inhibition at 10 µM [8]: 88.8%
- inhibition at 10 µM [9]: 88.6%
- inhibition at 10 µM [10]: 90.6%
- inhibition at 10 µM [11]: 63%
- inhibition at 10 µM [12]: 54.4%
- inhibition at 10 µM [13]: 82%
- inhibition at 10 µM [14]: 44.8%
- inhibition at 10 µM [15]: 93.2%
- inhibition at 10 µM [16]: 22%
- inhibition at 10 µM [17]: 59.1%
- inhibition at 10 µM [19]: 75.7%
- inhibition at 10 µM [20]: 88.4%
- inhibition at 10 µM [21]: 65.7%
- inhibition at 10 µM [22]: 50.4%
- inhibition at 10 µM [23]: 31%
- inhibition at 10 µM [29]: 59.4%
- inhibition at 10 µM [24]: 43.4%
- inhibition at 10 µM [25]: 95.9%
- inhibition at 10 µM [26]: 24.7%
- % Inhibition at 10 µM [30]: 68.46 ± 1.55%
- IC50 [30]: 5.78 ± 0.11 µM
- IC50 [27]: 4.52 ± 1.74 µM
- inhibition at 10 µM [27]: 68.8 ± 7.05%
- inhibition at 10 µM [28]: 90.9%

SMILES: Cc1ccc2nc3ccccc3c(NCc3ccc(Cl)cc3)c2c1 [Compound 31, (4-Chlorobenzyl)-(2-methyl-acridin-9-yl)-amine]
- % Inhibition at 10 µM [1]: 60.02 ± 3.07%
- IC50 ([1]; read-out: IC50 μM): 4.96 ± 0.62 µM
- inhibition at 10 µM [2]: 22.2%
- inhibition at 10 µM [3]: 70.5%
- inhibition at 10 µM [4]: 22.9%
- inhibition at 10 µM [5]: 122%
- inhibition at 10 µM [6]: 60.9%
- inhibition at 10 µM [7]: 59.8%
- inhibition at 10 µM [8]: 121%
- inhibition at 10 µM [9]: 87%
- inhibition at 10 µM [10]: 85.3%
- inhibition at 10 µM [11]: 45.8%
- inhibition at 10 µM [12]: 117%
- inhibition at 10 µM [13]: 85.5%
- inhibition at 10 µM [14]: 114%
- inhibition at 10 µM [15]: 128%
- inhibition at 10 µM [16]: 24.5%
- inhibition at 10 µM [17]: 44.1%
- inhibition at 10 µM [18]: 99.9%
- inhibition at 10 µM [19]: 68%
- inhibition at 10 µM [20]: 94.7%
- inhibition at 10 µM [21]: 65.3%
- inhibition at 10 µM [22]: 44.6%
- inhibition at 10 µM [23]: 24.4%
- inhibition at 10 µM [24]: 103%
- inhibition at 10 µM [25]: 109%
- inhibition at 10 µM [26]: 17.6%
- % Inhibition at 10 µM [30]: 55.53 ± 1.69%
- IC50 [30]: 7.95 ± 0.65 µM
- IC50 [27]: 4.78 ± 1.48 µM
- inhibition at 10 µM [27]: 65.7 ± 7.48%
- inhibition at 10 µM [28]: 157%
